# Source: PubChem BioAssay (NCI)
#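 1) Cells in 96-well plates. 2) Compound, 48 h, 5 concentrations. 3) Linear interpolation between surrounding doses. 4) Unreached endpoint = highest concentration. GI50 is the concentration that inhibits growth by half. TGI: concentration producing complete growth inhibition.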
# What was measured:
# Experiment in all cases: DTP human tumour cell line panel, 48 h
# [1] = tested on: 786-0 renal
# [2] = tested on: A498 renal
# [3] = tested on: A549 NSCLC
# [4] = tested on: ACHN renal
# [5] = tested on: BT-549 breast
# [6] = tested on: CAKI-1 renal
# [7] = tested on: CCRF-CEM leukemia
# [8] = tested on: COLO 205 colon
# [9] = tested on: DU-145 prostate
# [10] = tested on: EKVX NSCLC
# [11] = tested on: HCC-2998 colon
# [12] = tested on: HCT-116 colon
# [13] = tested on: HCT-15 colon
# [14] = tested on: HL-60(TB) leukemia
# [15] = tested on: HOP-62 NSCLC
# [16] = tested on: HOP-92 NSCLC
# [17] = tested on: HS 578T breast
# [18] = tested on: HT29 colon
# [19] = tested on: IGROV1 ovarian
# [20] = tested on: K-562 leukemia
# [21] = tested on: KM12 colon
# [22] = tested on: LOX IMVI melanoma
# [23] = tested on: M14 melanoma
# [24] = tested on: MALME-3M melanoma
# [25] = tested on: MCF7 breast
# [26] = tested on: MDA-MB-231 breast
# [27] = tested on: MDA-MB-435
# [28] = tested on: MOLT-4 leukemia
# [29] = tested on: NCI-H226 lung
# [30] = tested on: NCI-H23 lung
# [31] = tested on: NCI-H460 lung
# [32] = tested on: NCI-H522 lung
# [33] = tested on: NCI/ADR-RES ovarian
# [34] = tested on: OVCAR-3 ovarian
# [35] = tested on: OVCAR-4 ovarian
# [36] = tested on: OVCAR-5 ovarian
# [37] = tested on: OVCAR-8 ovarian
# [38] = tested on: PC-3 prostate
# [39] = tested on: RPMI-8226 leukemia
# [40] = tested on: RXF 393 renal
# [41] = tested on: SF-268 CNS
# [42] = tested on: SF-295 CNS
# [43] = tested on: SF-539 CNS
# [44] = tested on: SK-MEL-2 melanoma
# [45] = tested on: SK-MEL-28 melanoma
# [46] = tested on: SK-MEL-5 melanoma
# [47] = tested on: SK-OV-3 ovarian
# [48] = tested on: SN12C renal
# [49] = tested on: SNB-19 CNS
# [50] = tested on: SNB-75 CNS
# [51] = tested on: SR leukemia
# [52] = tested on: SW-620 colon
# [53] = tested on: T-47D breast
# [54] = tested on: TK-10 renal
# [55] = tested on: U251 CNS
# [56] = tested on: UACC-257 melanoma
# [57] = tested on: UACC-62 melanoma
# [58] = tested on: UO-31 renal
compound,measurement,setting,value
CCN1C(=O)N(CC)C2C1NN=c1s/c(=C\c3ccc(F)cc3)c(=O)n12 (stereo unspecified),GI50,[1],702 nM
same,TGI,[1],> 100000 nM
same,GI50,[2],39.4 nM
same,TGI,[2],330 nM
same,GI50,[3],347 nM
same,TGI,[3],> 100000 nM
same,GI50,[4],336 nM
same,TGI,[4],> 100000 nM
same,GI50,[5],759 nM
same,TGI,[5],> 26100 nM
same,GI50,[6],72.2 nM
same,TGI,[6],> 100000 nM
same,GI50,[7],265 nM
same,TGI,[7],> 100000 nM
same,GI50,[8],277 nM
same,TGI,[8],1430 nM
same,GI50,[9],300 nM
same,TGI,[9],> 37800 nM
same,GI50,[10],396 nM
same,TGI,[10],> 100000 nM
same,GI50,[11],319 nM
same,TGI,[11],> 100000 nM
same,GI50,[12],211 nM
same,TGI,[12],> 100000 nM
same,GI50,[13],87.6 nM
same,TGI,[13],> 100000 nM
same,GI50,[14],170 nM
same,TGI,[14],514 nM
same,GI50,[15],287 nM
same,TGI,[15],> 100000 nM
same,GI50,[16],7430 nM
same,TGI,[16],> 100000 nM
same,GI50,[17],183 nM
same,TGI,[17],> 100000 nM
same,GI50,[18],61.4 nM
same,TGI,[18],> 100000 nM
same,GI50,[19],584 nM
same,TGI,[19],> 100000 nM
same,GI50,[20],56.6 nM
same,TGI,[20],> 100000 nM
same,GI50,[21],91.3 nM
same,TGI,[21],> 100000 nM
same,GI50,[22],338 nM
same,TGI,[22],> 100000 nM
same,GI50,[23],136 nM
same,TGI,[23],> 100000 nM
same,GI50,[24],28900 nM
same,TGI,[24],> 100000 nM
same,GI50,[25],45.4 nM
same,TGI,[25],> 100000 nM
same,GI50,[26],406 nM
same,TGI,[26],> 80200 nM
same,GI50,[27],31.7 nM
same,TGI,[27],121 nM
same,GI50,[28],418 nM
same,TGI,[28],> 100000 nM
same,GI50,[29],20300 nM
same,TGI,[29],> 100000 nM
same,GI50,[30],547 nM
same,TGI,[30],> 100000 nM
same,GI50,[31],218 nM
same,TGI,[31],> 100000 nM
same,GI50,[32],93.1 nM
same,TGI,[32],903 nM
same,GI50,[33],168 nM
same,TGI,[33],> 100000 nM
same,GI50,[34],92.4 nM
same,TGI,[34],664 nM
same,GI50,[35],786 nM
same,TGI,[35],> 100000 nM
same,GI50,[36],473 nM
same,TGI,[36],> 100000 nM
same,GI50,[37],430 nM
same,TGI,[37],> 100000 nM
same,GI50,[38],217 nM
same,TGI,[38],> 100000 nM
same,GI50,[39],326 nM
same,TGI,[39],> 63200 nM
same,GI50,[40],162 nM
same,TGI,[40],622 nM
same,GI50,[41],807 nM
same,TGI,[41],> 100000 nM
same,GI50,[42],81.9 nM
same,TGI,[42],> 100000 nM
same,GI50,[43],158 nM
same,TGI,[43],527 nM
same,GI50,[44],425 nM
same,TGI,[44],> 100000 nM
same,GI50,[45],599 nM
same,TGI,[45],> 100000 nM
same,GI50,[46],86.5 nM
same,TGI,[46],5700 nM
same,GI50,[47],343 nM
same,TGI,[47],> 100000 nM
same,GI50,[48],615 nM
same,TGI,[48],> 100000 nM
same,GI50,[49],374 nM
same,TGI,[49],> 100000 nM
same,GI50,[50],47.4 nM
same,TGI,[50],611 nM
same,GI50,[51],47.4 nM
same,TGI,[51],> 37300 nM
same,GI50,[52],140 nM
same,TGI,[52],> 100000 nM
same,GI50,[53],30800 nM
same,TGI,[53],> 100000 nM
same,GI50,[54],10500 nM
same,TGI,[54],> 100000 nM
same,GI50,[55],241 nM
same,TGI,[55],> 100000 nM
same,GI50,[56],42900 nM
same,TGI,[56],> 100000 nM
same,GI50,[57],111 nM
same,TGI,[57],> 100000 nM
same,GI50,[58],601 nM
same,TGI,[58],> 100000 nM
